Data set [1] relates to Rattus norvegicus. To be noted: for LOEL / NOEL: Hershberger; for LEL: uterotrophic, Active.
The test system of data set [2] is Rattus norvegicus.
The test system of the next data set is Mus musculus. To be noted: subchronic, duration: 13 weeks, B6C3F1.
Data set [3] has as its system Rattus norvegicus. The conditions noted are these: oral.
Data set [4] has as its system Rattus norvegicus. To be noted: M/F; for LEL / NOEL: duration: 2 years, diet.
For a further data set, the system named is Oryctolagus sp. To be noted: acute; dermal; occlusive; New Zealand.
The mark [5] stands for this setting: duration: 10 days, oral, gavage, Sprague-Dawley, active + Antiandrogenic + anti-androgenic.
Setting [6] is: duration: 5 days, oral, gavage, Sprague-Dawley, active + Antiandrogenic + decrease in AST wts.
[7] abbreviates: duration: 10 days, oral, gavage, Fischer 344, active + Antiandrogenic + anti-androgenic + decrease in AST wts.
Where [8] appears, read: duration: 10 days, oral, gavage, Sprague-Dawley, Antiandrogenic + anti-androgenic + decrease in AST wts.
[9] abbreviates: duration: 10 days, oral, gavage, Wistar, active + Antiandrogenic + anti-androgenic + decrease in AST wts.
Where [10] appears, read: subchronic, oral, gavage, epithelial hyperplasia of the forestomach.
Where [11] appears, read: chronic, oral, reduced body weight gain and food consumption.
Where [12] appears, read: short-term, duration: 28 days, gavage, M, Sprague-Dawley, Body Weight Changes: decrease + Food Consumption: decrease + Relative Organ Weight: Thyroid increase.
Setting [13] is: duration: 10 days, oral, gavage, Sprague-Dawley, active + Negative + Antiandrogenic + anti-androgenic + negative.
Where [14] appears, read: chronic, oral, reduced body weight (males), liver cell vacuolation, cholinesterase inhibition.

The structures appear in SMILES notation. Values joined by “and” are separate entries in the source; they are usually repeats but may differ in a detail not shown here. Equal entries are not always repeated.

In the case of `CC(C)CCCCCCCOC(=O)c1ccccc1C(=O)OCCCCCCCC(C)C` [Diisodecyl phthalate], in the data set with Rattus norvegicus [1] (setting [5]), the LOEL was 500 mg/kg-day and the NOEL amounted to 100 mg/kg-day.

Molecule `C#C[C@]1(OC(=O)CC)C[C@@H]2CC[C@@H]3[C@H](CC[C@@]4(C)[C@H]3CC[C@]4(C#C)OC(=O)CC)[C@H]2C1` [Dinordrin II] had an LEL in the data set with Rattus norvegicus [1] (duration: 3 days, oral) of 0.01 mg/day.

In turn, `C#C[C@@]1(OC(=O)CC)C[C@@H]2CC[C@@H]3[C@H](CC[C@@]4(C)[C@H]3CC[C@]4(C#C)OC(=O)CC)[C@H]2C1` [Dinordrin I] displayed an LEL in the data set with Rattus norvegicus [1] (duration: 3 days, oral) of 0.000156 mg/day.

Take `CC(C)([CH2][Sn]([CH2]C(C)(C)c1ccccc1)([CH2]C(C)(C)c1ccccc1)[O][Sn]([CH2]C(C)(C)c1ccccc1)([CH2]C(C)(C)c1ccccc1)[CH2]C(C)(C)c1ccccc1)c1ccccc1` [Fenbutatin oxide]: the LOEL in the data set on Rattus norvegicus [1] (duration: 10 days, oral, gavage, wistar, active + Negative + Antiandrogenic + anti-androgenic + decrease in age of partial PPS at 10 / decrease in PPS wt and age at 75 with …) was 10 mg/kg-day.

`COP(=S)(OC)Oc1ccc([N+](=O)[O-])c(C)c1` [Fenitrothion]: the LOEL in the data set on Rattus norvegicus [1] (duration: 7 days, oral, gavage, Sprague-Dawley, active + Negative + Antiandrogenic + anti-androgenic) came to 15 mg/kg-day.

With `CC(C)C(=O)Nc1ccc([N+](=O)[O-])c(C(F)(F)F)c1` [Flutamide], the LOEL in the data set with Rattus norvegicus [1] (setting [6]) is 2.5 mg/kg-day; with Rattus norvegicus [1] (setting [7]), 2.5 mg/kg-day and 3.2 mg/kg-day; in the data set on Rattus norvegicus [1] (setting [8]), 1 mg/kg-day; with Rattus norvegicus [1] (setting [9]) it was 2.5 mg/kg-day and 3 mg/kg-day and 3.2 mg/kg-day. For the same molecule, the NOEL was 0.6 mg/kg-day with Rattus norvegicus [1] (setting [6]); 0.6 mg/kg-day in the data set with Rattus norvegicus [1] (duration: 7 days, oral, gavage, Sprague-Dawley, active + Antiandrogenic + anti-androgenic + decrease in AST wts); 0.6 mg/kg-day with Rattus norvegicus [1] (setting [7]); 0.6 mg/kg-day in the data set with Rattus norvegicus [1] (setting [8]); 0.6 mg/kg-day in the data set on Rattus norvegicus [1] (duration: 10 days, oral, gavage, Sprague-Dawley, Neither + decrease in AST); 0.6 mg/kg-day in the data set with Rattus norvegicus [1] (duration: 10 days, oral, gavage, Sprague-Dawley, active + Antiandrogenic + anti-androgenic + decrease in AST wts). Further, the NOEL stood at 0.6 mg/kg-day in the data set with Rattus norvegicus [1] (duration: 10 days, oral, gavage, Sprague-Dawley, active + Antiandrogenic + decrease in AST wts) and 0.6 mg/kg-day in the data set on Rattus norvegicus [1] (setting [9]).

One may read the NOAEL as the highest tested level that showed no adverse finding. `Brc1ccccc1-c1c(Br)c(Br)c(Br)c(Br)c1Br` [Hexabromobiphenyl]: in the data set with Rattus norvegicus [2] (short-term, duration: 10 days, oral, gavage, M, Sprague-Dawley, endocrine), the NOAEL was found to be 1 mg/kg-day.

One may read the LOAEL as the lowest dose or exposure tested at which an adverse effect was seen. As for `ClC(Cl)=C(Cl)C(Cl)=C(Cl)Cl` [Hexachloro-1,3-butadiene], the NOAEL in the data set with Mus musculus (oral, diet, F, renal) was found to be 0.2 mg/kg-day. For the same molecule, the lowest observed adverse effect level (LOAEL) in the data set on Rattus norvegicus [2] (short-term, duration: 14 days, oral, diet, M/F, Wistar, renal) is 5.9 mg/kg-day.

Turning to `CC(C)Oc1ccc2c(=O)c(-c3ccccc3)coc2c1` [Ipriflavone], the NOEL in the data set on Rattus norvegicus [3] (subchronic, duration: 35 days, gavage, Sprague-Dawley) is more than 3000 mg/kg-day. In the data set on Rattus norvegicus [1] (duration: 3 days, oral), the LEL amounted to 200 mg/day.

`CBr` [Methyl bromide]: the LOAEL with Mus musculus (inhalation, M/F, neurological) was 38.8 mg/m3; in the data set with Rattus norvegicus [2] (chronic, duration: 129 weeks, inhalation, M/F, Wistar, respiratory), 12 mg/m3; in the data set with Rattus norvegicus [4] (chronic, duration: 29 months, inhalation, degenerative and proliferative lesions of the olfactory epithelium of the nasal cavity), 11.7 mg/m3; in the data set on Rattus norvegicus [4] (setting [10]), 7.1 mg/kg-day. The NOAEL in the data set on Rattus norvegicus [4] (setting [10]) worked out at 1.4 mg/kg-day.

In the case of `CCCCCCCCCC(=O)O[C@H]1CC[C@H]2[C@@H]3CCC4=CC(=O)CC[C@@H]4[C@H]3CC[C@]12C` [Nandrolone decanoate], the LOEL in the data set on Rattus norvegicus [1] (duration: 10 days, injection, intramuscular, Wistar, active + Androgenic + androgenic) turned out to be 1.5 mg/kg-day.

The LD50 is the dose expected to kill half of the subjects tested. A high value points to lower toxicity. In turn, `CCCCCCCC=O` [Octanal] gave a median lethal dose (LD50) in the data set on Oryctolagus sp. of 5210 mg/kg.

`CNC(=O)ON=C(SC)C(=O)N(C)C` [Oxamyl]: the NOEL is 0.5 mg/kg-day with Rattus norvegicus [1] (duration: 10 days, oral, gavage, Sprague-Dawley, inactive + Negative + Negative + neither + negative) and 2.5 mg/kg-day in the data set with Rattus norvegicus [4] (setting [11]). The molecule further came in with an LEL in the data set on Rattus norvegicus [4] (setting [11]) of 5 mg/kg-day.

Turning to `O=C1OC(c2ccc(O)cc2)(c2ccc(O)cc2)c2ccccc21` [Phenolphthalein], in the data set with Rattus norvegicus [3] (setting [12]), the no-observed-adverse-effect level (NOAEL) is less than 200 mg/kg-day. The NOEL was less than 200 mg/kg-day with Rattus norvegicus [3] (setting [12]); 800 mg/kg-day in the data set on Rattus norvegicus [3] (subchronic, duration: 13 weeks, diet, F, Fischer 344, Body Weight Changes: decrease + Absolute Organ Weight: Liver + Relative Organ Weight: Right kidney increase, Liver increase); 576 mg/kg-day in the data set with Rattus norvegicus [3] (subchronic, duration: 13 weeks, diet, M/F, Fischer 344, Body Weight Changes: decrease + Absolute Organ Weight: Liver + Relative Organ Weight: Right kidney increase, Liver increase). The same molecule registered an LEL in the data set on Rattus norvegicus [1] (duration: 2 days, injection, subcutaneous) of 1 mg/day.

In the case of `COP(=S)(OC)SCN1C(=O)c2ccccc2C1=O` [Phosmet], in the data set on Rattus norvegicus [1] (setting [13]), the LOEL worked out at 25 mg/kg-day; the NOEL is 20 mg/kg-day and 15 mg/kg-day. In the data set on Rattus norvegicus [4] (setting [14]), this molecule gave an LEL of 20 mg/kg-day and an NOEL of 2 mg/kg-day.

`C[C@H]1CCC[C@H](O)CCCCCc2cc(O)cc(O)c2C(=O)O1` [Zearalanol] yielded an LEL in the data set with Rattus norvegicus [1] (duration: 3 days, oral) of 0.03 mg/day.

Turning to `ClC1C(Cl)C(Cl)C(Cl)C(Cl)C1Cl` (stereo not drawn) [alpha-1,2,3,4,5,6-Hexachlorocyclohexane], the no-observed-adverse-effect level (NOAEL) with Rattus norvegicus [2] (chronic, duration: 107 weeks, oral, diet, M/F, Wistar, hepatic) worked out at 0.9 mg/kg-day; with Rattus norvegicus [2] (short-term, duration: 28 days, oral, gavage, M, Fischer 344, hepatic) it was 2 mg/kg-day.

The values above are taken from EPA's ToxValDB 9.5.
